Each block holds one molecule with its values, some of them ahead of it. Calls of active or inactive are those of the source. The calls are words filed in the database; no cut-off is given here.
Experiments:
[1] = biological target: T1, Prostaglandin E2 receptor EP3 subtype (Homo sapiens) (UniProt P43115); test: Antagonist activity at human EP3 receptor at 0.1 uM by FLIPR assay; format: functional; set-up: scale not given: the % may be the effect or the level left
T1 sequence (whole entry): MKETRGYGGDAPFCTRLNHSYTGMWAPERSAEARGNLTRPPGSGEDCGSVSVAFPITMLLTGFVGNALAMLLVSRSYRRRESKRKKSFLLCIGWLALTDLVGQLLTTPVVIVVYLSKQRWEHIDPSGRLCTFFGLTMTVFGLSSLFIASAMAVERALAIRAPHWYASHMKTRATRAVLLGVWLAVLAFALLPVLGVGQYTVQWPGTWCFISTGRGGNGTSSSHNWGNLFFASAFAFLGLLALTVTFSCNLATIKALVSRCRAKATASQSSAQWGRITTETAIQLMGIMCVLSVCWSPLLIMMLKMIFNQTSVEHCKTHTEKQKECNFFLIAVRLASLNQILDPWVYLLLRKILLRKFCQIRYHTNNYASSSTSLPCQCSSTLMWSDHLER

[2] = biological target: T1, Prostaglandin E2 receptor EP3 subtype (Homo sapiens); test: Antagonist activity at human EP3 receptor at 1 uM by FLIPR assay; format: functional; set-up: scale not given: the % may be the effect or the level left
[3] = biological target: T2, Thromboxane A2 receptor (Homo sapiens) (UniProt P21731); test: Activity at TP receptor at 10 uM by FLIPR assay
T2 sequence (whole entry): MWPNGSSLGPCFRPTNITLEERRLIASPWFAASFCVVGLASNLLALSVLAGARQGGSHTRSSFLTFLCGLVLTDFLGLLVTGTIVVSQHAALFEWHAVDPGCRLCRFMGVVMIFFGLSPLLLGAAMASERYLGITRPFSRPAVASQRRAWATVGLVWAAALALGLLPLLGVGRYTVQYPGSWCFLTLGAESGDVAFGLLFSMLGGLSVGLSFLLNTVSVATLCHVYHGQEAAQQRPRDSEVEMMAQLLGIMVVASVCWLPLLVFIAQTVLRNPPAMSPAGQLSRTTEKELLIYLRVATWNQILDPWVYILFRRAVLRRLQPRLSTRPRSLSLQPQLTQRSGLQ

[4] = Protein binding in plasma by HSA-HPLC method; format: ADME, cell-free; details: human, read-out: PB (converted)
[5] = Metabolic stability in rat liver microsomes assessed as compound remaining after 30 mins; format: ADME, Microsome; details: read-out: Stability
[6] = biological target: T3, Prostaglandin E2 receptor EP1 subtype (Homo sapiens) (UniProt P34995); test: Activity at EP1 receptor at 10 uM by FLIPR assay
T3 sequence (whole entry): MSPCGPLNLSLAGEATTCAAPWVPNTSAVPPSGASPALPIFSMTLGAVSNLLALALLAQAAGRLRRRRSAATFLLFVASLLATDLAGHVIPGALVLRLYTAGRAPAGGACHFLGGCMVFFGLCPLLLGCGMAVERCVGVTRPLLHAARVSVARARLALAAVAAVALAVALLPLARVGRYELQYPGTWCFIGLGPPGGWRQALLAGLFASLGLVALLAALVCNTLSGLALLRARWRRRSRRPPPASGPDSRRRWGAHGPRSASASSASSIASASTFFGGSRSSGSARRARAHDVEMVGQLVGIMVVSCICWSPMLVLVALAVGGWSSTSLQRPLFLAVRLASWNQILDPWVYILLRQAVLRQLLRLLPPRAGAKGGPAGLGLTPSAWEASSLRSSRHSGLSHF

[7] = biological target: T3, Prostaglandin E2 receptor EP1 subtype (Homo sapiens); test: Activity at EP1 receptor at 0.1 uM by FLIPR assay
[8] = biological target: T4, Prostaglandin E2 receptor EP4 subtype (Homo sapiens, UniProt P35408); test: Activity at EP4 receptor at 1 uM by FLIPR assay
[9] = biological target: T3, Prostaglandin E2 receptor EP1 subtype (Homo sapiens); test: Activity at EP1 receptor at 1 uM by FLIPR assay
[10] = biological target: T2, Thromboxane A2 receptor (Homo sapiens); test: Activity at TP receptor at 0.1 uM by FLIPR assay
[11] = biological target: T5, Prostaglandin F2-alpha receptor (Homo sapiens, UniProt P43088); test: Activity at FP receptor at 1 uM by FLIPR assay
[12] = biological target: T1, Prostaglandin E2 receptor EP3 subtype (Homo sapiens); test: Displacement of [3H]PGE2 from human EP3 receptor in presence of 10% human serum
[13] = Metabolic stability in human liver microsomes assessed as compound remaining after 30 mins; format: ADME, Microsome; details: read-out: Stability
[14] = biological target: T5, Prostaglandin F2-alpha receptor; test: Activity at FP receptor at 0.1 uM by FLIPR assay
[15] = biological target: T4, Prostaglandin E2 receptor EP4 subtype; test: Activity at EP4 receptor at 0.1 uM by FLIPR assay
[16] = biological target: T4, Prostaglandin E2 receptor EP4 subtype; test: Activity at EP4 receptor at 10 uM by FLIPR assay
[17] = tested on: Platelet; test: Inhibition of PGE2/collagen-induced platelet aggregation rat platelets rich plasma; format: functional
[18] = biological target: T6, Prostaglandin E2 receptor EP3 subtype (Homo sapiens, UniProt P43115); test: Displacement of [3H]PGE2 from human EP3 receptor
T6 sequence (P43115 whole entry): T1 sequence (whole entry)

[19] = biological target: T5, Prostaglandin F2-alpha receptor; test: Activity at FP receptor at 10 uM by FLIPR assay
[20] = biological target: T2, Thromboxane A2 receptor (Homo sapiens); test: Activity at TP receptor at 1 uM by FLIPR assay
[21] = biological target: Prostacyclin receptor (Homo sapiens, UniProt P43119); test: Binding affinity to human IP receptor by radioligand displacement assay
[22] = biological target: T5, Prostaglandin F2-alpha receptor; test: Binding affinity to human FP receptor by radioligand displacement assay
[23] = biological target: T4, Prostaglandin E2 receptor EP4 subtype; test: Binding affinity to human EP4 receptor by radioligand displacement assay
[24] = tested on: Platelet; test: Inhibition of PGE2/collagen-induced platelet aggregation human platelets rich plasma; format: functional
[25] = biological target: Prostaglandin E2 receptor EP2 subtype (Homo sapiens, UniProt P43116); test: Binding affinity to human EP2 receptor by radioligand displacement assay
[26] = biological target: T7, Prostaglandin E2 receptor EP1 subtype (Homo sapiens, UniProt P34995); test: Binding affinity to human EP1 receptor by radioligand displacement assay
T7 sequence (P34995 whole entry): T3 sequence (whole entry)

[27] = biological target: T1, Prostaglandin E2 receptor EP3 subtype (Homo sapiens); test: Antagonist activity at human EP3 receptor at 10 uM by FLIPR assay; format: functional; set-up: scale not given: the % may be the effect or the level left
[28] = biological target: T1, Prostaglandin E2 receptor EP3 subtype (Homo sapiens); test: Full displacement of [3H]PGE2 from human EP3 receptor at 20 uM

T5 sequence (P43088 whole entry): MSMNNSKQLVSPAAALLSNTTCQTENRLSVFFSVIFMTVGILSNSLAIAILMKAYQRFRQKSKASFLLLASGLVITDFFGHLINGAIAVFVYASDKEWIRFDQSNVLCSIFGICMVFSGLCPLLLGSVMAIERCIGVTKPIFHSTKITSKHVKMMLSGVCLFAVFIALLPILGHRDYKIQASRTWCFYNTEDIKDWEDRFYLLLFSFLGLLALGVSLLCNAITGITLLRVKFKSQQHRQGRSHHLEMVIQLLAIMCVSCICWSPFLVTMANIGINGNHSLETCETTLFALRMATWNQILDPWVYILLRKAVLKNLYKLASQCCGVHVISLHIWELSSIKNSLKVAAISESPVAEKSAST
T4 sequence (P35408 whole entry): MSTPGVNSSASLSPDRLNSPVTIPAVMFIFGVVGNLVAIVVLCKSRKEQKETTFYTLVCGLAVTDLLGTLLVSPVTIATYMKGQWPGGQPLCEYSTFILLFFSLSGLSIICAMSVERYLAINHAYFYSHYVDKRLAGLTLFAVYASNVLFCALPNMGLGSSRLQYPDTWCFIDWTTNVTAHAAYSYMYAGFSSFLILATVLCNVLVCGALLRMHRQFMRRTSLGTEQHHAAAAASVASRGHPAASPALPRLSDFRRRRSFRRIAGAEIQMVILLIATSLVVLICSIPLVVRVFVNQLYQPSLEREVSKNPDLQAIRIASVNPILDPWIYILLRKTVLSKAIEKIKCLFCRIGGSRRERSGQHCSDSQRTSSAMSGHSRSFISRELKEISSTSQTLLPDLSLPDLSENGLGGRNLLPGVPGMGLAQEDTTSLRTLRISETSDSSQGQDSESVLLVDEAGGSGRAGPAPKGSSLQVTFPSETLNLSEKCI
Chain of Prostacyclin receptor (P43119 whole entry): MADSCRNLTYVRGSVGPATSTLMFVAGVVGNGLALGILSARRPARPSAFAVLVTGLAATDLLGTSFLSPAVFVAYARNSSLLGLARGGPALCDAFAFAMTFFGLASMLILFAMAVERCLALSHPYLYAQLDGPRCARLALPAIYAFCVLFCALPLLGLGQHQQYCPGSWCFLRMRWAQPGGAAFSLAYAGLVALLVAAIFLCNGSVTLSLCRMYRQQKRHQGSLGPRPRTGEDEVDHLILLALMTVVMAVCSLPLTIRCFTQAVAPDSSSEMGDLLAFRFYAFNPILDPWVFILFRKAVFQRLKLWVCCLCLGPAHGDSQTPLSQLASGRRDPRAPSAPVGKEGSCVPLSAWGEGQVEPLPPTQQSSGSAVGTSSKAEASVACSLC
Chain of Prostaglandin E2 receptor EP2 subtype (P43116 whole entry): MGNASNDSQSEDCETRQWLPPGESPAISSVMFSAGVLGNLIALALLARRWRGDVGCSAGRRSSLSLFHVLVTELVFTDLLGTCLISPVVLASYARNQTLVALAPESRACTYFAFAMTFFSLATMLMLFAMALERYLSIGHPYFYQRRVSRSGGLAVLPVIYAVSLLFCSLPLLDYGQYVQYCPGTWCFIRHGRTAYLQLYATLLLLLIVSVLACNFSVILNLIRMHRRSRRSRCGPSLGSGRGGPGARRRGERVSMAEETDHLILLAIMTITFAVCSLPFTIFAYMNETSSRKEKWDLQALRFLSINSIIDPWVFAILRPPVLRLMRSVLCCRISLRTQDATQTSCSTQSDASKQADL

SMILES: COc1ccc(Cn2cc(C)c3cc(F)cc(-c4nnc(NS(=O)(=O)c5ccc(F)c(F)c5)o4)c32)cc1
Activity [1]: 35%
Activity [2]: 99%

SMILES: Cc1cn(Cc2ccc(Cl)cc2Cl)c2c(-c3cc(NS(=O)(=O)c4ccc(F)c(F)c4)no3)cc(F)cc12
fraction unbound [4]: 0.016
remaining at 0.5 h [5]: 51%
IC50 [21]: > 20000 nM
IC50 [22]: 600 nM
fold change (FC) [12]: 12
IC50 [23]: 18600 nM
remaining at 0.5 h [13]: 46.8%
IC50 [24]: 785 nM
IC50 [25]: 19800 nM
IC50 [17]: 3850 nM
IC50 [18]: 1 nM
IC50 [26]: > 20000 nM

SMILES: Cc1cn(Cc2ccc3c(c2)OCCO3)c2c(-c3nnc(NS(=O)(=O)c4ccc(F)cc4)o3)cc(F)cc12
Activity [1]: 11%
Activity [27]: 48%

SMILES: COc1cccc(Cn2cc(C)c3cc(F)cc(-c4nnc(NS(=O)(=O)c5ccc(F)cc5)o4)c32)c1
Activity [1]: 62%
Activity [27]: 99%

The next lines start with the values.

Activity [3]: 56%
fraction unbound [4]: 0.028
remaining at 0.5 h [5]: 44.8%
Activity [6]: 100%
Activity [7]: -2%
Activity [8]: -22%
Activity [9]: 16%
Activity [10]: 3%
Activity [11]: -2%
fold change (FC) [12]: 3.5
remaining at 0.5 h [13]: 72.1%
Activity [14]: -15%
Activity [15]: -26%
Activity [16]: -7%
IC50 [17]: 2860 nM
IC50 [18]: 4 nM
Activity [19]: -1%
Activity [20]: 0%
SMILES: Cc1cn(Cc2ccc(Cl)cc2Cl)c2c(-c3nnc(NS(=O)(=O)c4ccc(Cl)c(Cl)c4)o3)cc(F)cc12

fold change (FC) [12]: 1
IC50 [18]: 1320 nM
Activity [28]: inactive
SMILES: Cc1cn(Cc2ccc(Cl)cc2Cl)c2c(-c3nnc(NC(=O)c4ccc(Cl)cc4Cl)o3)cc(F)cc12
